How the values were obtained:
[1] = previously shown; cited from earlier work
Description: We recently reported that upon binding to sulfated GAGs, PACAP38 undergoes a random coil-to-α-helix conformational conversion. […] Thus, we evaluated if the lower efficacy of cellular uptake of representative peptides of the secretin/glucagon/GHRH superfamily and of calcitonin could not be ascribed to the incapacity of ...

[2] = previously shown; cited from earlier work; remark: listed apart in the source
Description: This could be related to the fact that arginine has a higher affinity for sulfated GAGs than lysine.

[3] = Heparin affinity chromatography (HiTrap Heparin HP sepharose column, NaCl gradient); format: binding, porcine; settings: 20 mM phosphate pH 7.4, NaCl gradient
Experimental: (A) Chromatograms of PACAP38 elution with increasing NaCl concentration on a sepharose heparin column connected to a FPLC Aktapure system.
The relative binding affinity of the peptides for sulfated GAGs was evaluated using a 1 mL HiTrap Heparin HP column packed with sepharose and immobilized heparin from porcine intestinal mucosa (GE Healthcare, Baie-d'Urfé, QC, Canada). The column was connected to a FPLC Aktapure system (GE Healthcare) and equilibrated with phosphate buffer (20 mM, pH 7.4) prior to injection. Five hundred microliters of 0.5 mg/mL peptide solutions were injected at a flow rate of 0.5 mL/min. After injection, the elution consisted of an isocratic step of 5 mL phosphate buffer (20 mM, pH 7.4) followed by a gradient from 0 to 2 M NaCl in phosphate buffer (pH 7.4). Peptide elution was monitored using absorbance at 230 nm.

[4] = Heparin clustering measured by turbidity at 400 nm, heparin-into-peptide titration; format: physicochemical; settings: 1.25 µL aliquots of 100 µM heparin into 1 mL 50 µM peptide, 20 mM phosphate, 100 mM NaCl, pH 7.4
Experimental: Each peak corresponds to the injection of 1.25 μL of a 100 μM heparin solution (20 mM phosphate, 100 mM NaCl, pH 7.4) into a 1 mL 50 μM peptide solution (20 mM phosphate, 100 mM NaCl, pH 7.4).
The formation of macromolecular GAG-peptide clusters was monitored by measuring the light scattering at 400 nm, as previously described [27, 28], using a 100 Bio Cary UV-visible spectrophotometer (Varian, Malton, ON, Canada). Briefly, for the heparin-into-peptide titration, a 1 cm length quartz cuvette was filled with 1 mL of a 50 μM peptide solution (20 mM phosphate buffer, 100 mM·NaCl, pH 7.4) and 1.25 μL aliquots of a 100 μM heparin solution (20 mM phosphate buffer, 100 mM·NaCl, pH 7.4) were successively added. The solution was gently mixed by vortex and the turbidity at 400 nm was immediately measured. For the peptide-into-heparin titration, a 1 cm length quartz cuvette was filled with 1 mL of a 10 μM heparin solution (20 mM phosphate buffer, 100 mM·NaCl, pH 7.4) and 12.5 μL aliquots of a 200 μM peptide solution (20 mM phosphate buffer, 100 mM·NaCl, pH 7.4) were successively added. The solution was gently mixed by vortex and the turbidity at 400 nm was immediately measured. Data was expressed as solution turbidity at 400 nm as function of peptide/heparin or heparin/peptide molar ratio.

CHO K1 cells = experiment: Cellular uptake of fluorescently labelled peptides by flow cytometry, CHO K1 cells; format: cell-based, Chinese hamster; settings: 1 µM fluorescently-labelled (FITC-Ahx N-terminal) peptide, 1 h at 37 °C, 1% FBS Ham's F12, heparin wash and trypsin, at least 3 experiments
Experimental: Chinese hamster ovary cells K1 (CHO K1; obtained from ATCC, Manassas, VA, USA) and xylosyltransferase deficient cells [18] (CHO pgs-A-745; obtained from ATCC) were maintained in Ham’s F12 medium supplemented with 10% foetal bovine serum (FBS), 2 mM L-glutamine and antibiotic (10,000 UI/mL penicillin, and 10,000 UI/mL streptomycin). Cells were maintained as a monolayer at 37 °C in a humidified atmosphere of 5% CO2 and 95% air and passaged by trypsinization when the cells reached 70%–80% confluence.

CHO pgs-A-745 cells = experiment: Cellular uptake of fluorescently labelled peptides by flow cytometry, GAGs-deficient CHO pgs-A-745 cells; format: cell-based, Chinese hamster; settings: 1 µM fluorescently labelled peptide, 1 h at 37 °C
Experimental: Figure 1 Cellular uptake of cationic peptide hormones and TAT peptide. […] Data represent the relative mean fluorescence intensity (± S.E.M.) of gated cells from at least 3 individual experiments and results are expressed as a percentage of the median fluorescence for 1 μM PACAP38 in CHO K1 cells. Cells were incubated for 1 h at 37 °C in 5% CO2 with fluorescently labelled peptides, washed twice in HBSS, treated with 100 μg/mL heparin for 5 min, detached by trypsin treatment, washed by centrifugation and resuspended in ice-cold sorting buffer before flow cytometry analysis.
Chinese hamster ovary cells K1 (CHO K1; obtained from ATCC, Manassas, VA, USA) and xylosyltransferase deficient cells (CHO pgs-A-745; obtained from ATCC) were maintained in Ham’s F12 medium supplemented with 10% foetal bovine serum (FBS), 2 mM L-glutamine and antibiotic (10,000 UI/mL penicillin, and 10,000 UI/mL streptomycin). […]
For cellular uptake measurement, CHO K1 and CHO pgs-A-745 were seeded in 12-well plates at a density of 30,000 cells/well for 48 h to approximately 75% confluence. […] To confirm that the fluorescence measured by flow cytometry was not associated to non-specific binding of the FITC-peptides at the cell surface, we performed the analysis after treatment with the fluorescent quencher trypan blue. […]

For “GRKKRRQRRRPPQ [TAT(48–60), cationic peptide derived from the HIV-1 protein TAT, the control CPP used in this study]”, the “Secondary conformation of TAT upon binding to heparin” value [1] is given as “adopts an α-helical conformation” and the “NaCl concentration at which TAT is eluted from heparin column” value [2] is given as “around 1.8 M”.
In the case of “CGNLSTCMLGTYTQDFNKFHTFPQTAIGVGAP [Calcitonin]”, the “Relative binding to heparin column (in words)” value [3] is reported as “bind weakly to the heparin column”, the “Turbidity at 400 nm on titration of heparin into peptide (in words)” value [4] is reported as “absence of turbidity” and the “Cellular uptake, fold lower compared to PACAP38” value (CHO K1 cells) is reported as 5- to 10 fold. For the same sequence, the “Extent of internalization in CHO pgs-A-745 versus CHO K1 cells (in words)” value (CHO pgs-A-745 cells) was “rather similar”.

— PMC4661883, “Cell-Penetrating Ability of Peptide Hormones: Key Role of Glycosaminoglycans Clustering” (International Journal of Molecular Sciences, 2015)
